The record followed here is US8841414B1, “Targeted delivery of therapeutic peptides by thermally responsive biopolymers” (University of Mississippi Medical Center, priority 2006, dated 2014).

Where two headings read alike, the source gives them in different places.

One assay addresses c-Myc (UniProt P01106). Nature of the assay: cell-based or functional assay.
Assay [1] has as its system MCF-7 cells. Nature of the assay: Drug IC50 with and without polypeptide pretreatment (MTS cell viability assay). Type of assay: cell-based. The conditions noted are these: for IC50: Homo sapiens, MCF7. Here is the method:
The effect of drug concentration on cell viability for Dox (A) or etoposide (B) was determined with and without Pen-ELP-H1 pretreatment. Cells were pretreated on day 1 with 20 μM Pen-ELP-H1 and treated on day 4 with drug. Viability was determined on day 7 using the MTS cell viability assay. A single representative experiment is shown (error bars=SD).
The ability of Pen-ELP-H1 to enhance the effectiveness of chemotherapeutic agents was tested in MCF-7 breast cancer cells. Cells were treated on day 1 with 20 μM Pen-ELP-H1 or a control polypeptide which lacks the c-Myc inhibitory sequence (Pen-ELP) for 1 h, rinsed, and placed in fresh media for 3 days. On day 4, the cells were exposed to the drugs at various concentrations for 72 h, and viability was assessed using the MTS cell viability assay. […] Data from the MTS assay was averaged and fit using an exponential equation in order to calculate the IC50 with and without pretreatment.
Table 3. […] Statistical significance was assessed using an unpaired Student's t-test.

The test system of the next assay is HeLa cells. Nature of the assay: Drug IC50 with and without Pen-ELP-H1 pretreatment. The note with it: for IC50: Homo sapiens. The class given is cell-based, human. Here is the method:
(§1) Table 4. IC50 values were collected for HeLa and MES-SA cells. The Dox and etoposide IC50 was determined with and without Pen-ELP-H1 pretreatment. Curves were fit using an exponential equation, and the IC50 value shown represents the mean±SEM of at least 5 independent determinations each performed with 4 replicates per drug concentration. Statistical significance was assessed using an unpaired Student's t-test.

In the next assay the test system is MES-SA cells. Nature of the assay: Drug IC50 with and without Pen-ELP-H1 pretreatment. Type of assay: cell-based. The note with it: for IC50: Homo sapiens. The procedure: as §1
In assay [2] the test system is MCF-7 cells. Nature of the assay: Cell cycle distribution by BrdU and propidium iodide flow cytometry. The note with it: for effect on cell cycle distribution: agent alone (Pen-ELP-H1 20 μM, Dox 100 nM, etoposide 1 μM); for G1 fraction / S phase fraction: day 5. Type of assay: cell-based. Here is the method:
FIG. 31 is a set of graphs that show cell cycle analysis of MCF-7 Cells after Pen-ELP-H1 Pretreatment before Dox or Etoposide. A. Cells were pretreated with 20 μM Pen-ELP-H1 on day 1 and 100 nM Dox or 1 μM etoposide on day 4 and analyzed on day 5 by flow cytometry with BrdU and propidium iodide staining Raw data for a single representative experiment is shown. 4 independent experiments with Dox (B) and etoposide (C) were averaged. Percentages were determined by analysis of 5000 cells/sample, and results shown represent the mean±SEM.
To gain more insight into the effect of polypeptide and drug treatment, the cell cycle distribution of MCF-7 cells was examined. Cells were treated as above with 20 μM Pen-ELP-H1 on day 1 and Dox (100 nM) or etoposide (1 μM) on day 4. On day 5, the cells were pulsed with BrdU and stained with propidium iodide for flow cytometric analysis of the cell cycle distribution. BrdU was used to accurately estimate the fraction of cells in S-phase, and this was combined with propidium iodide staining to denote each phase of the cell cycle (FIG. 31A). […] The pattern observed with Dox was enhanced upon pretreatment with Pen-ELP-H1, where the G1 fraction increased from about 48% to 53%, and the S phase fraction was reduced from 8% to 5% as compared to treatment with Dox alone (FIG. 31B).

Assay [3] has as its system MCF-7 cells. The assay can be described thus: Dox/etoposide toxicity after pretreatment with DFMO and/or Pen-ELP-H1 (MTS). Type of assay: cell-based. The conditions noted are these: then Dox 750 nM for 72 h. Here is the method: FIG. 33-1 is a set of graphs that show proliferation with DFMO and Dox or Etoposide. Cells were pretreated with 20 μM Pen-ELP-H1 or 50 μM DFMO on day 1, and treated with 750 nM Dox (A) or 200 μM etoposide (B) on day 4. Cell viability was determined on day 7 using the MTS cell viability assay. Results represent the mean±SEM of 3 independent experiments.
As a transcription factor, c-Myc influences the transcription levels of a large variety of genes. One of the genes under c-Myc control encodes the enzyme ODC (140). ODC catalyzes the first and rate-limiting step in the synthesis of cellular polyamines (148). […] Above, it was shown that interruption of the c-Myc/Max heterodimer by the Pen-ELP-H1 polypeptide caused a reduction in the steady-state levels of ODC mRNA to less than 40% of control levels (93). This observation led to the hypothesis that modulation of Dox and etoposide toxicity may be due to a reduction in the amount of ODC in the cell. In order to test this hypothesis, a combination of pretreatment with the ODC inhibitor DFMO and/or Pen-ELP-H1 was used in the Dox and etoposide toxicity assay. MCF-7 cells were pretreated with Pen-ELP-H1 (20 μM), DFMO (50 μM), or both before a 72 h exposure to Dox (750 nM) or etoposide (200 μM). […] Similar results were obtained with Pen-ELP-H1 and/or DFMO combined with etoposide (FIG. 33-1 B).

Another assay relates to Panc-1 cells. Nature of the assay: Panc-1 proliferation with 5-FU alone or after Bac7-ELP1-p21 pretreatment (MTS). Type of assay: cell-based, human. The procedure: Panc-1 cells were treated for 72 h with 5-F-U with or without pre-treatment with Bac7-ELP1-p21 for 1 hr at 42° C. Cell proliferation was assessed by the MTS assay. Bars, SEM of 3 experiments.
Resistance to Current Chemotherapeutic Agents: One of the therapeutic agents currently used in the clinical setting for pancreatic cancer is 5-Fluorouracil (5-FU).

The mark [4] stands for this setting: 20 μM Pen-ELP on day 1, drug on day 4 for 72 h, read-out: IC50 after Pen-ELP pretreatment (mean ± SEM).
The mark [5] stands for this setting: 20 μM Pen-ELP-H1 on day 1, drug on day 4 for 72 h, read-out: IC50 after Pen-ELP-H1 pretreatment (mean ± SEM).
The mark [6] stands for this setting: no pretreatment, 72 h drug exposure, read-out: IC50 (mean ± SEM).
[7] abbreviates: no pretreatment, read-out: IC50 (mean ± SEM).
The mark [8] stands for this setting: read-out: IC50 after Pen-ELP-H1 pretreatment (mean ± SEM).
The mark [9] stands for this setting: Dox 100 nM after 20 μM Pen-ELP-H1 pretreatment.

UniProt P01106, sequence (P01106 whole entry): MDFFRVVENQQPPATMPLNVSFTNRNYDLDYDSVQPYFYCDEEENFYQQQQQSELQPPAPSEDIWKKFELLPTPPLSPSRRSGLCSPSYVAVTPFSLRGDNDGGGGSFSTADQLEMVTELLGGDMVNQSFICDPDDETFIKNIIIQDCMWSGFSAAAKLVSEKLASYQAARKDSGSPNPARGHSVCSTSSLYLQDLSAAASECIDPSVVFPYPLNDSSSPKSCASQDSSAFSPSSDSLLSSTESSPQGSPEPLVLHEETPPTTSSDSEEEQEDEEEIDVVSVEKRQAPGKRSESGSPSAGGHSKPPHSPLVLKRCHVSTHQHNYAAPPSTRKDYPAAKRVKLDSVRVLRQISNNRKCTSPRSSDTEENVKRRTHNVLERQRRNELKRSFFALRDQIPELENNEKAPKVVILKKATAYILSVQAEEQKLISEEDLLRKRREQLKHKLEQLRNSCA

Take Pen-ELP1-H1: in the assay with c-Myc, the steady-state levels of ODC mRNA (% of control levels) is less than 40.
In the case of `CC[C@@]1(O)C(=O)OCc2c1cc1n(c2=O)Cc2cc3ccccc3nc2-1` [Camptothecin], the figures for the IC50 in the assay with MCF-7 cells [1] (setting [4]), in the assay on MCF-7 cells [1] (setting [5]) and in the assay on MCF-7 cells [1] (setting [6]) were 229 ± 46.4 nM, 235 ± 5.8 nM and 235 ± 9.8 nM, respectively. Moreover, the “effect of Pen-ELP-H1 or Pen-ELP pretreatment on cell killing by the drug” value in the assay with MCF-7 cells [1] (MCF-7) is on record as “no significant effect”.
As for `COc1cc([C@@H]2c3cc4c(cc3[C@@H](O[C@@H]3O[C@@H]5CO[C@@H](C)O[C@H]5[C@H](O)[C@H]3O)[C@H]3COC(=O)[C@H]23)OCO4)cc(OC)c1O` [Etoposide], the IC50 in the assay on MCF-7 cells [1] (setting [4]) was 187000 ± 13800 nM; in the assay on MCF-7 cells [1] (setting [5]) it was 141000 ± 3500 nM; in the assay on MCF-7 cells [1] (setting [6]), 210000 ± 12400 nM; in the assay with HeLa cells (setting [7]) it was 630 ± 59.2 nM; in the assay with HeLa cells (setting [8]) it was 465 ± 45.4 nM; in the assay with MES-SA cells (setting [7]), 17300 ± 3100 nM. For the same compound, the IC50 in the assay on MES-SA cells (setting [8]) amounted to 9800 ± 3100 nM. For the same compound, the “reduction in IC50 with Pen-ELP-H1 pretreatment” value in the assay with MCF-7 cells [1] (MCF-7) is on record as “about 1.5 fold”. In addition, the “reduction of IC50 by Pen-ELP-H1 pretreatment” value with HeLa cells turned out to be 1.4 fold; in the assay on MES-SA cells, 1.8 fold. Also, in the assay on MCF-7 cells [2] (20 μM Pen-ELP-H1 day 1, etoposide 1 μM day 4), the “effect on cell cycle distribution after Pen-ELP-H1 pretreatment” value was “slightly enhanced the etoposide-induced accumulation in G1”. For the same compound, in the assay on MCF-7 cells [2], the “effect on cell cycle distribution” value was “accumulation in both G1 and G2/M”.
For the compound `NCCC[C@](N)(C(=O)O)C(F)F` [DFMO, α-difluoromethylornithine], the “enhancement of Dox-induced cell killing by pretreatment” value in the assay with MCF-7 cells [3] (Pen-ELP-H1 20 μM or DFMO 50 μM) is listed as “enhanced the Dox-induced cell killing by similar amounts”. In addition, the “enhancement of Dox toxicity by pretreatment with the combination of Pen-ELP-H1 and DFMO” value in the assay with MCF-7 cells [3] (Pen-ELP-H1 20 μM plus DFMO 50 μM) was “no greater enhancement of Dox toxicity than either agent used alone”.
As for `COc1cccc2c1C(=O)c1c(O)c3c(c(O)c1C2=O)C[C@@](O)(C(=O)CO)C[C@@H]3O[C@H]1C[C@H](N)[C@H](O)[C@H](C)O1` [Doxorubicin], the IC50 in the assay on MCF-7 cells [1] (setting [4]) was found to be 777 ± 75.1 nM; in the assay on MCF-7 cells [1] (setting [5]), 504 ± 35.3 nM; with MCF-7 cells [1] (setting [6]) it was 752 ± 21.6 nM; with HeLa cells (setting [7]), 13.9 ± 1.3 nM; with HeLa cells (setting [8]) it was 9.4 ± 1.2 nM; in the assay on MES-SA cells (setting [7]) it was 33.7 ± 7.1 nM. Besides, in the assay on MES-SA cells (setting [8]), the IC50 was found to be 16.3 ± 1.6 nM. The “reduction in IC50 with Pen-ELP-H1 pretreatment” value with MCF-7 cells [1] (MCF-7) is “about 1.5 fold”. For the same compound, the “reduction of IC50 by Pen-ELP-H1 pretreatment” value stood at 1.5 fold in the assay with HeLa cells and 2 fold in the assay on MES-SA cells. Besides, the G1 fraction with MCF-7 cells [2] (setting [9]) is reported as 53%; in the assay with MCF-7 cells [2] (Dox 100 nM alone) it was “about 48%”. Moreover, the S phase fraction with MCF-7 cells [2] (setting [9]) is given as 5%; with MCF-7 cells [2] (Dox 100 nM alone), 8%. In addition, in the assay on MCF-7 cells [2], the “effect on cell cycle distribution” value is “arrest in G1 and G2/M at the expense of S phase”.
In the case of `O=c1[nH]cc(F)c(=O)[nH]1` [5-FU, 5-Fluorouracil], the “sensitivity of Panc-1 cells to treatment” value in the assay with Panc-1 cells (72 h) was “highly resistant”. Besides, the “effect of increasing the concentration on cell proliferation” value in the assay on Panc-1 cells (beyond 10 μM, 72 h) is “no increasing effect on cell proliferation”. In the assay on Panc-1 cells (pretreated 1 h at 42° C. with Bac7-ELP1-p21, then 5-FU 72 h), the “cell proliferation after pretreatment with Bac7-ELP1-p21” value is “dramatically reduced”.
